Values quoted from earlier work as cited in patent EP0970199B1, “FLUORESCENT PROTEIN SENSORS FOR DETECTION OF ANALYTES” (The Regents of the University of California, priority 1997, dated 1998).

Conditions: fluorescein in 0.1 N NaOH; 9-aminoacridine in water

Nc1c2ccccc2nc2ccccc12 [9-aminoacridine]
quantum yield of standard: 0.98
